{
  "source": "patent US10787446B2",
  "about": "(GENENTECH, INC., priority 2015, dated 2020)",
  "data": [
    {"biological_target": "T1, hNav1.7 and the β1 subunit (Homo sapiens, UniProt Q15858)", "T1 construct": "expressed in transfected cells", "T1 sequence (Q15858 whole entry)": "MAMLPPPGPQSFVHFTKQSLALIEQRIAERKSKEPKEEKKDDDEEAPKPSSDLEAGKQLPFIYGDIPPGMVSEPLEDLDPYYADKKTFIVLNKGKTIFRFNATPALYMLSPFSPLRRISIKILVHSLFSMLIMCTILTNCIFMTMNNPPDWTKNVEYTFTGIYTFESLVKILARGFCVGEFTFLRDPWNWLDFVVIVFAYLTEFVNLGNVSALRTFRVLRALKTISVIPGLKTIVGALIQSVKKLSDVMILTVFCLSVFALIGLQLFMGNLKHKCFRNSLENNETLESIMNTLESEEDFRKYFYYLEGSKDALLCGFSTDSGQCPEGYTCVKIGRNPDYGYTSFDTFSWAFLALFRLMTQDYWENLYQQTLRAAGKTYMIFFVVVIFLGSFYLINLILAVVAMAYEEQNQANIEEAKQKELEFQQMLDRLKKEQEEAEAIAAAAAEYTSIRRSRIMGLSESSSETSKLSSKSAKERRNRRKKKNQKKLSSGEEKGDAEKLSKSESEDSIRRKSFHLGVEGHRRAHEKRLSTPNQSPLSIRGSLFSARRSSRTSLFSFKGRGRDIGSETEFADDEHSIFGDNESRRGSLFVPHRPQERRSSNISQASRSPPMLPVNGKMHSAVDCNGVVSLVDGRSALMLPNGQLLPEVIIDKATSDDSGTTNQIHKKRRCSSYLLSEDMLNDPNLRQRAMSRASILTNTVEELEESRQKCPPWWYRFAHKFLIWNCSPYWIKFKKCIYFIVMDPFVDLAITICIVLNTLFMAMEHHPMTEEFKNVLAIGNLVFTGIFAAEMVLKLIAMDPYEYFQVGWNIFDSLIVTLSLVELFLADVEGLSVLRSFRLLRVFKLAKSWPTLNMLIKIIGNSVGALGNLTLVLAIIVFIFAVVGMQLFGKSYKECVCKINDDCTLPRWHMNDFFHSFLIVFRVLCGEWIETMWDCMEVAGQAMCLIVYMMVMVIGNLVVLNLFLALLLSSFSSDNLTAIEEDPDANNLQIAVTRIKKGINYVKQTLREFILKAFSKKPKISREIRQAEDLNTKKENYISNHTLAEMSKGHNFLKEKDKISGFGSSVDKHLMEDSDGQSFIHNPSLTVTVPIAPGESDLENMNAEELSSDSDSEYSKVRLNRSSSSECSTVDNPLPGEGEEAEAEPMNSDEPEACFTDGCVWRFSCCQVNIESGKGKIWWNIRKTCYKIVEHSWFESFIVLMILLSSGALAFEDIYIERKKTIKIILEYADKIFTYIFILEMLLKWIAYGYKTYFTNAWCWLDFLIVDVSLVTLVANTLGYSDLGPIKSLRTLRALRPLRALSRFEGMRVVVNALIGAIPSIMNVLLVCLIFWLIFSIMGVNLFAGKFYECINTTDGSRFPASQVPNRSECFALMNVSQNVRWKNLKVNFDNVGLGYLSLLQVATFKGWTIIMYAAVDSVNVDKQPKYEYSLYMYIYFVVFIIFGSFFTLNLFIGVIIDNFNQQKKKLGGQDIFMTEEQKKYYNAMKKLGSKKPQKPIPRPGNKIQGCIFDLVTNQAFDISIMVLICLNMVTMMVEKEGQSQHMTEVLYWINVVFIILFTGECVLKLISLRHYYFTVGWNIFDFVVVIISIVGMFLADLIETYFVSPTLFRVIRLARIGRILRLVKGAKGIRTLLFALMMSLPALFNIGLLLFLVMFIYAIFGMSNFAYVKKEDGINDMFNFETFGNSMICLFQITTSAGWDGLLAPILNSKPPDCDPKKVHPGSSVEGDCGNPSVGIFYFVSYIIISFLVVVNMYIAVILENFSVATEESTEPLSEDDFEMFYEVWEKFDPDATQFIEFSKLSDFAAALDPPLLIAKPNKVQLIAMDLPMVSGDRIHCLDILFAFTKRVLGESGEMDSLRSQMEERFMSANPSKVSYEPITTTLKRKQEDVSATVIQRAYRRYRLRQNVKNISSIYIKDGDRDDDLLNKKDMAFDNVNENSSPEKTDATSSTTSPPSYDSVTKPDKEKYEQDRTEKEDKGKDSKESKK", "T1 sequence (Q07699 19-218 partner)": "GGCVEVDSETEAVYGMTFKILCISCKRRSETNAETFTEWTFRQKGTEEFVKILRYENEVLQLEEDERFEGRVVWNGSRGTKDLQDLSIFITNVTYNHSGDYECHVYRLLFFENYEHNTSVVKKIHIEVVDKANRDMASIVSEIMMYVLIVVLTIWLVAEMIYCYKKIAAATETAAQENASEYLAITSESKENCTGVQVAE", "assay": "Tritiated compound competitive binding to membranes from cells heterologously expressing hNav1.7 and the β1 subunit (LBA)", "conditions": "competition with 100 pM [3H]compound, 18 h, room temperature; IC50 by 4 parameter logistic model", "procedure,_shortened": "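Membranes were incubated 18 h at room temperature with 100 pM [3H]-labelled NaV1.7 inhibitor and increasing test compound in 100 mM NaCl, 20 mM Tris HCl, pH 7.4. Bound radioligand was filtered on PEI-soaked GF/C, washed, and counted by scintillation. IC50 from a 4-parameter logistic fit of % inhibition.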", "units": {"Nav1.7 (LBA)": "µM"}, "values": [
      {"compound": "O=S(=O)(Nc1nccs1)c1cc2c(cc1F)[C@@H](N1CC[C@H](C(F)(F)F)C[C@@H]1c1ccc(F)cc1)CCO2", "note": "[Example 215, (S)-6-fluoro-4-((2R,4S)-2-(4-fluorophenyl)-4-(trifluoromethyl)piperidin-1-yl)-N-(thiazol-2-yl)chromane-7-sulfonamide]", "Nav1.7 (LBA)": 0.633},
      {"compound": "CC(C)(C)OC(=O)N1CCN([C@@H]2CCOc3cc(S(=O)(=O)Nc4ncns4)ccc32)[C@H](c2ccc(F)cc2)C1", "note": "[Example 216, Tert-butyl (R)-4-((R)-7-(N-(1,2,4-thiadiazol-5-yl)sulfamoyl)chroman-4-yl)-3-(4-fluorophenyl)piperazine-1-carboxylate]", "Nav1.7 (LBA)": 0.213},
      {"compound": "CC(C)(C)OC(=O)N1CCN([C@H]2CCOc3cc(S(=O)(=O)Nc4ncns4)ccc32)[C@H](c2ccc(F)cc2)C1", "note": "[Example 217, tert-butyl (R)-4-((S)-7-(N-(1,2,4-thiadiazol-5-yl)sulfamoyl)chroman-4-yl)-3-(4-fluorophenyl)piperazine-1-carboxylate]", "Nav1.7 (LBA)": 0.0183},
      {"compound": "O=S(=O)(Nc1ncns1)c1ccc2c(c1)OCC[C@@H]2N1CCNC[C@H]1c1ccc(F)cc1", "note": "[Example 218, (S)-4-((R)-2-(4-fluorophenyl)piperazin-1-yl)-N-(1,2,4-thiadiazol-5-yl)chromane-7-sulfonamide]", "Nav1.7 (LBA)": 0.0941},
      {"compound": "O=S(=O)(Nc1ncns1)c1ccc2c(c1)OCC[C@@H]2N1CCN(CC(F)(F)F)C[C@H]1c1ccc(F)cc1", "note": "[Example 219, (S)-4-((R)-2-(4-fluorophenyl)-4-(2,2,2-trifluoroethyl)piperazin-1-yl)-N-(1,2,4-thiadiazol-5-yl)chromane-7-sulfonamide]", "Nav1.7 (LBA)": 0.00778},
      {"compound": "O=S(=O)(Nc1ncns1)c1ccc2c(c1)OCC[C@H]2N1CCN(CC(F)(F)F)C[C@H]1c1ccc(F)cc1", "note": "[Example 220, (R)-4-((R)-2-(4-fluorophenyl)-4-(2,2,2-trifluoroethyl)piperazin-1-yl)-N-(1,2,4-thiadiazol-5-yl)chromane-7-sulfonamide]", "Nav1.7 (LBA)": 0.0494},
      {"compound": "CN1CCN([C@H]2CCOc3cc(S(=O)(=O)Nc4ncns4)ccc32)[C@H](c2ccc(F)cc2)C1", "note": "[Example 221, (S)-4-((R)-2-(4-fluorophenyl)-4-methylpiperazin-1-yl)-N-(1,2,4-thiadiazol-5-yl)chromane-7-sulfonamide]", "Nav1.7 (LBA)": 0.223},
      {"compound": "O=S(=O)(Nc1ncns1)c1ccc2c(c1)OCC[C@@H]2N1CCN(CC(F)F)C[C@H]1c1ccc(F)cc1", "note": "[Example 222, (S)-4-((R)-4-(2,2-difluoroethyl)-2-(4-fluorophenyl)piperazin-1-yl)-N-(1,2,4-thiadiazol-5-yl)chromane-7-sulfonamide]", "Nav1.7 (LBA)": 0.0262},
      {"compound": "O=S(=O)(Nc1ncns1)c1ccc2c(c1)OCC[C@@H]2N1CCN(CCF)C[C@H]1c1ccc(F)cc1", "note": "[Example 223, (S)-4-((R)-4-(2-fluoroethyl)-2-(4-fluorophenyl)piperazin-1-yl)-N-(1,2,4-thiadiazol-5-yl)chromane-7-sulfonamide]", "Nav1.7 (LBA)": 0.125},
      {"compound": "CCN1CCN([C@H]2CCOc3cc(S(=O)(=O)Nc4ncns4)ccc32)[C@H](c2ccc(F)cc2)C1", "note": "[Example 224, (S)-4-((R)-4-ethyl-2-(4-fluorophenyl)piperazin-1-yl)-N-(1,2,4-thiadiazol-5-yl)chromane-7-sulfonamide]", "Nav1.7 (LBA)": 0.174},
      {"compound": "O=S(=O)(Nc1ncns1)c1ccc2c(c1)OCC[C@@H]2N1CCN(S(=O)(=O)C(F)(F)F)C[C@H]1c1ccc(F)cc1", "note": "[Example 225, (S)-4-((R)-2-(4-fluorophenyl)-4-((trifluoromethyl)sulfonyl)piperazin-1-yl)-N-(1,2,4-thiadiazol-5-yl)chromane-7-sulfonamide]", "Nav1.7 (LBA)": 0.0057},
      {"compound": "CS(=O)(=O)N1CCN([C@H]2CCOc3cc(S(=O)(=O)Nc4ncns4)ccc32)[C@H](c2ccc(F)cc2)C1", "note": "[Example 226, (S)-4-((R)-2-(4-fluorophenyl)-4-(methylsulfonyl)piperazin-1-yl)-N-(1,2,4-thiadiazol-5-yl)chromane-7-sulfonamide]", "Nav1.7 (LBA)": 0.0305},
      {"compound": "O=S(=O)(Nc1nncs1)c1cc2c(cc1F)[C@@H](N1CC[C@@H](C(F)(F)F)C[C@H]1c1ccc(F)cc1)CCO2", "note": "[Example 231, (S)-6-fluoro-4-((2S,4R)-2-(4-fluorophenyl)-4-(trifluoromethyl)piperidin-1-yl)-N-(1,3,4-thiadiazol-2-yl)chroman-7-sulfonamide]", "Nav1.7 (LBA)": 0.00495}
    ]}
  ]
}
